Experimental data reported in patent US9751874B2, “Hydroxy containing FXR (NR1H4) modulating compounds” (Gilead Sciences, Inc., priority 2014, dated 2017).

Legend:
[1] = molecular target: T1, human FXR alpha ligand binding domain (Homo sapiens, UniProt Q96RI1); test: FRET activity assay (ligand mediated cofactor peptide interaction, LANCE); format: biochemical; conditions: GST-FXR-LBD / biotinylated SRC-1 peptide (676-700), read-out: F EC50
T1 construct: made in house; host or cells: E. coli BL21(DE3), vector pDEST15
T1 sequence (Q96RI1 187-472 isoform Q96RI1-2): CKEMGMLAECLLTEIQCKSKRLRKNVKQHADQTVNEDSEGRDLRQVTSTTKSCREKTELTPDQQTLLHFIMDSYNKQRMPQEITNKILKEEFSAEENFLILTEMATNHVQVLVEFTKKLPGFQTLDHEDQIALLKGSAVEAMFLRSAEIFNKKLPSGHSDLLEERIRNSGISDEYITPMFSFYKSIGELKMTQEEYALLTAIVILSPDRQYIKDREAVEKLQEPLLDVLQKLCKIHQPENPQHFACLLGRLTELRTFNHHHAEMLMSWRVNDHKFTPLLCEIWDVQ
Procedure, shortened: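 GST-tagged FXR LBD (aa 187–472, E. coli-expressed) at 20–60 ng/well with 200–600 nM biotinylated SRC-1 peptide (676–700), streptavidin-APC and Eu anti-GST in Tris pH 7.5 buffer, 1% DMSO, equilibrated 1 h dark at room temperature. TR-FRET read as 665/615 nm ratio; agonists raise signal above basal.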

[2] = molecular target: T2, FXR ligand binding domain (Homo sapiens, UniProt Q96RI1); test: Mammalian One Hybrid (M1H) assay, Gal4 promoter driven transactivation in HEK293 cells; format: cell-based; conditions: Gal4-FXR-LBD luciferase reporter, 16 h
T2 construct: expressed in transfected cells; host or cells: HEK293 cells, transiently transfected with pCMV-BD-FXR-LBD, pFR-Luc and pRL-CMV
T2 sequence (Q96RI1 187-472 isoform Q96RI1-2): T1 sequence (Q96RI1 187-472 isoform Q96RI1-2)
Procedure, shortened: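 HEK293 cells were transiently co-transfected with Gal4-DBD fused to the human FXR LBD (aa 187-472, NM_005123), a 5×GAL4-site firefly luciferase reporter and CMV-Renilla control. Compounds were added 2-4 h post-transfection (vehicle ≤0.1%) in charcoal/dextran-stripped FBS medium for 16 h. Firefly and Renilla luciferase were read sequentially, in triplicate.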

Compound	EC50 [1]	EC50 [2]
O=C(O)c1ccnc([C@]2(O)[C@@H]3CC[C@H]2C[C@H](OCc2c(-c4c(Cl)cccc4Cl)noc2C2CC2)C3)c1 [Example 11-26]	53 nM	1800 nM
O=C(O)c1ccc(C2(O)C[C@H]3CC(OCc4c(-c5c(Cl)cccc5Cl)noc4C4CC4)C[C@H]3C2)c(F)c1 (stereo partly drawn) [Example 11-47, 4-((3aR,6aS)-5-((5-Cyclopropyl-3-(2,6-dichlorophenyl)isoxazol-4-yl)methoxy)-2-hydroxyoctahydropentalen-2-yl)-3-fluorobenzoic acid]	12 nM	99 nM
O=C(O)C1(Oc2cc(F)cc([C@]3(O)[C@@H]4CC[C@H]3C[C@H](OCc3c(-c5c(Cl)cccc5Cl)noc3C3CC3)C4)c2)CC1 [Example 14-3, 1-(3-((1R,3s,5S,8r)-3-((5-Cyclopropyl-3-(2,6-dichlorophenyl)isoxazol-4-yl)methoxy)-8-hydroxybicyclo[3.2.1]octan-8-yl)-5-fluorophenoxy)cyclopropanecarboxylic acid]	41 nM	520 nM
O=C(O)c1cc(F)c2nc([C@]3(O)CC[C@@H](OCc4c(-c5c(Cl)cncc5Cl)noc4C4CC4)CC3)sc2c1 [Example 11-34, 2-((1s,4s)-4-((5-Cyclopropyl-3-(3,5-dichloropyridin-4-yl)isoxazol-4-yl)methoxy)-1-hydroxycyclohexyl)-4-fluorobenzo[d]thiazole-6-carboxylic acid]	55 nM	380 nM
O=C(O)c1c(F)cc2nc([C@]3(O)CC[C@@H](OCc4c(-c5c(Cl)cccc5Cl)noc4C4CC4)CC3)sc2c1F [Example 14-2, 2-((1s,4s)-4-((5-Cyclopropyl-3-(2,6-dichlorophenyl)isoxazol-4-yl)methoxy)-1-hydroxycyclohexyl)-5,7-difluorobenzo[d]thiazole-6-carboxylic acid]	32 nM	2700 nM
O=C(O)c1ccc2nc([C@]3(O)CC[C@@H](OCc4c(-c5c(Cl)cccc5Cl)noc4C4CC4)CC3)sc2c1 [Example 11-30, 2-((1s,4s)-4-((5-Cyclopropyl-3-(2,6-dichlorophenyl)isoxazol-4-yl)methoxy)-1-hydroxycyclohexyl)benzo[d]thiazole-6-carboxylic acid]	64 nM	67 nM
CC(C)(O)c1onc(-c2c(Cl)cccc2Cl)c1CO[C@@H]1C[C@H]2CC[C@@H](C1)[C@]2(O)c1nc2c(F)cc(C(=O)O)cc2s1 [Example 11-56, 2-((1R,3s,5S,8r)-3-((3-(2,6-Dichlorophenyl)-5-(2-hydroxypropan-2-yl)isoxazol-4-yl)methoxy)-8-hydroxybicyclo[3.2.1]octan-8-yl)-4-fluorobenzo[d]thiazole-6-carboxylic acid]	23 nM	290 nM
O=C(O)c1cc(F)c2nc(C3(O)C[C@H]4CC[C@@H](C3)C4OCc3c(-c4c(Cl)cccc4Cl)noc3C3CC3)sc2c1 (single isomer, unassigned) [Example 11-54]	810 nM	390 nM
O=C(O)c1ccc2sc([C@]3(O)CC[C@@H](OCc4c(-c5c(Cl)cccc5Cl)noc4C4CC4)CC3)nc2c1 [Example 4, 2-((1s,4s)-4-((5-Cyclopropyl-3-(2,6-dichlorophenyl)isoxazol-4-yl)methoxy)-1-hydroxycyclohexyl)benzo[d]thiazole-5-carboxylic acid]	21 nM	100 nM
Cc1onc(-c2c(Cl)cccc2Cl)c1CO[C@H]1C[C@H]2CC[C@@H](C1)[C@]2(O)c1nc2ccc(C(=O)O)cc2s1 [Example 11-38, 2-((1R,3r,5S,8r)-3-((3-(2,6-Dichlorophenyl)-5-methylisoxazol-4-yl)methoxy)-8-hydroxybicyclo[3.2.1]octan-8-yl)benzo[d]thiazole-6-carboxylic acid]	270 nM	460 nM

Continued by falling EC50 [1], values first:

EC50 [1]	EC50 [2]	Compound
8600 nM	> 3000 nM	O=C(O)c1ccc2nc([C@]3(O)CC[C@H](OCc4c(C5CCC(F)(F)CC5)noc4C4CC4)CC3)sc2c1 [Example 11-2, 2-((1r,4r)-4-((5-Cyclopropyl-3-(4,4-difluorocyclohexyl)isoxazol-4-yl)methoxy)-1-hydroxycyclohexyl)benzo[d]thiazole-6-carboxylic acid]
4900 nM	> 3000 nM	O=C(O)c1ccnc2ccc([C@]3(O)CC[C@H](OCc4c(-c5c(Cl)cccc5Cl)noc4C4CC4)CC3)cc12 [Example 31, 6-((1r,4r)-4-((5-cyclopropyl-3-(2,6-dichlorophenyl)isoxazol-4-yl)methoxy)-1-hydroxycyclohexyl)quinoline-4-carboxylic acid]
1500 nM	2200 nM	O=C(O)c1ccc2nc([C@]3(O)CC[C@@H](OCc4c(-c5ccccc5C(F)F)noc4C4CC4)CC3)sc2c1 [Example 11-15, 2-((1s,4s)-4-((5-Cyclopropyl-3-(2-(difluoromethyl)phenyl)isoxazol-4-yl)methoxy)-1-hydroxycyclohexyl)benzo[d]thiazole-6-carboxylic acid]
1300 nM	2100 nM	O=C(O)c1ccc2nc([C@]3(O)CC[C@@H](OCc4c(C5CCC6(CC5)CC6)noc4C4CC4)CC3)sc2c1 [Example 11-3, 2-((1s,4s)-4-((5-Cyclopropyl-3-(spiro[2.5]octan-6-yl)isoxazol-4-yl)methoxy)-1-hydroxycyclohexyl)benzo[d]thiazole-6-carboxylic acid]
350 nM	170 nM	O=C(O)c1ccc2nc([C@]3(O)CC[C@@H](OCc4c(-c5c(C(F)F)cccc5C(F)F)noc4C4CC4)CC3)sc2c1 [Example 11-18, 2-((1s,4s)-4-((3-(2,6-Bis(difluoromethyl)phenyl)-5-cyclopropylisoxazol-4-yl)methoxy)-1-hydroxycyclohexyl)benzo[d]thiazole-6-carboxylic acid]
235 nM	391 nM	CC(C)(Cc1cccc([C@]2(O)[C@@H]3CC[C@H]2C[C@H](OCc2c(-c4c(Cl)cccc4Cl)noc2C2CC2)C3)c1)C(=O)O [Example 11-53, 3-(3-((1R,3s,5S,8r)-3-((5-Cyclopropyl-3-(2,6-dichlorophenyl)isoxazol-4-yl)methoxy)-8-hydroxybicyclo[3.2.1]octan-8-yl)phenyl)-2,2-dimethylpropanoic acid]
50 nM	130 nM	O=C(O)c1cc(F)c2nc([C@]3(O)CC[C@@H](OCc4c(-c5c(Cl)cccc5Cl)noc4C4CC4)CC3)sc2c1 [Example 11-31, 2-((1s,4s)-4-((5-cyclopropyl-3-(2,6-dichlorophenyl)isoxazol-4-yl)methoxy)-1-hydroxycyclohexyl)-4-fluorobenzo[d]thiazole-6-carboxylic acid]
49 nM	120 nM	O=C(O)c1cccc2nc([C@]3(O)CC[C@@H](OCc4c(-c5c(Cl)cccc5Cl)noc4C4CC4)CC3)ccc12 [Example 11-44, 2-((1s,4s)-4-((5-Cyclopropyl-3-(2,6-dichlorophenyl)isoxazol-4-yl)methoxy)-1-hydroxycyclohexyl)quinoline-5-carboxylic acid]
31 nM	29 nM	O=C(O)c1ccc2nc(C3(O)CCC(OCc4c(-c5c(Cl)cccc5Cl)noc4C4CC4)C3)sc2c1 (stereo not shown) [Example 11-57, 2-(3-((5-Cyclopropyl-3-(2,6-dichlorophenyl)isoxazol-4-yl)methoxy)-1-hydroxy-cyclopentyl)benzo[d]thiazole-6-carboxylic acid]
9.6 nM	5.2 nM	O=C(O)c1ccc2nc([C@@]3(O)[C@@H]4CC5C[C@H]3C[C@](OCc3c(-c6c(Cl)cccc6Cl)noc3C3CC3)(C5)C4)sc2c1 [Example 11-35, 2-((1R,2r,3S,5s,7s)-5-((5-Cyclopropyl-3-(2,6-dichlorophenyl)isoxazol-4-yl)methoxy)-2-hydroxyadamantan-2-yl)benzo[d]thiazole-6-carboxylic acid]
7 nM	140 nM	CC(C)n1nc(C(=O)O)c2ccc([C@]3(O)CC[C@@H](OCc4c(-c5c(Cl)cccc5Cl)noc4C4CC4)CC3)cc21 [Example 11-45, 6-((1s,4s)-4-((5-Cyclopropyl-3-(2,6-dichlorophenyl)isoxazol-4-yl)methoxy)-1-hydroxycyclohexyl)-1-isopropyl-1H-indazole-3-carboxylic acid]
4.6 nM	37 nM	O=c1nc(-c2cc(F)c3nc([C@]4(O)[C@@H]5CC[C@H]4C[C@H](OCc4c(-c6c(Cl)cccc6Cl)noc4C4CC4)C5)sc3c2)[nH]o1 [Example 36, 3-(2-((1R,3s,5S,8r)-3-((5-Cyclopropyl-3-(2,6-dichlorophenyl)isoxazol-4-yl)methoxy)-8-hydroxybicyclo[3.2.1]octan-8-yl)-4-fluorobenzo[d]thiazol-6-yl)-1,2,4-oxadiazol-5(2H)-one]
4.3 nM	5.8 nM	O=C(O)c1cc(F)c2nc([C@]3(O)[C@@H]4CC[C@H]3C[C@H](OCc3c(-c5c(Cl)cncc5Cl)noc3C3CC3)C4)sc2c1 [Example 11-29, 2-((1R,3s,5S,8r)-3-((5-cyclopropyl-3-(3,5-dichloropyridin-4-yl)isoxazol-4-yl)methoxy)-8-hydroxybicyclo[3.2.1]octan-8-yl)-4-fluorobenzo[d]thiazole-6-carboxylic acid]
